Experimental data: patent US8987315B2, “Metalloenzyme inhibitor compounds” (Innocrin Pharmaceuticals, Inc., priority 2009, dated 2015)

What was measured:
[1] = target: CYP17 (Rattus norvegicus (Rat), UniProt P11715); test: Inhibition of CYP17 (rat testicular microsomes); assay type: biochemical; conditions: pooled rat testicular microsomes
[2] = target: CYP2C9 (Homo sapiens (Human), UniProt P11712); test: Inhibition of liver cytochrome P450 enzymes (human liver microsomes), CYP2C9
[3] = target: CYP2C19 (Homo sapiens (Human), UniProt P33261); test: Inhibition of liver cytochrome P450 enzymes (human liver microsomes), CYP2C19
[4] = target: CYP3A4 (Homo sapiens (Human), UniProt P08684); test: Inhibition of liver cytochrome P450 enzymes (human liver microsomes), CYP3A4
Sequence of CYP3A4 (P08684 whole entry): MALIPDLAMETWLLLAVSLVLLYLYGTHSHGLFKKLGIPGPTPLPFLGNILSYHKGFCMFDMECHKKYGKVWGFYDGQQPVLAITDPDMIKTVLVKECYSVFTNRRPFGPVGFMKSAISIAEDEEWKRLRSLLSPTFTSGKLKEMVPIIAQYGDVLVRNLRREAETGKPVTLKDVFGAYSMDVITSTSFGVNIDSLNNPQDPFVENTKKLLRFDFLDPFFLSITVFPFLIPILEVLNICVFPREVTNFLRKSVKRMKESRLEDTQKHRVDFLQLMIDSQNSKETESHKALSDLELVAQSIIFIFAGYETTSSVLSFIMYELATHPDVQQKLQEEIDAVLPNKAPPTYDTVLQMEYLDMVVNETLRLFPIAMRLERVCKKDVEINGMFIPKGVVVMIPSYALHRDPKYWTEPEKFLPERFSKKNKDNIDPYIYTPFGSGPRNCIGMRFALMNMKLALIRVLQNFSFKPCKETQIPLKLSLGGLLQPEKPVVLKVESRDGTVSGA

Sequence of CYP2C9 (P11712 whole entry): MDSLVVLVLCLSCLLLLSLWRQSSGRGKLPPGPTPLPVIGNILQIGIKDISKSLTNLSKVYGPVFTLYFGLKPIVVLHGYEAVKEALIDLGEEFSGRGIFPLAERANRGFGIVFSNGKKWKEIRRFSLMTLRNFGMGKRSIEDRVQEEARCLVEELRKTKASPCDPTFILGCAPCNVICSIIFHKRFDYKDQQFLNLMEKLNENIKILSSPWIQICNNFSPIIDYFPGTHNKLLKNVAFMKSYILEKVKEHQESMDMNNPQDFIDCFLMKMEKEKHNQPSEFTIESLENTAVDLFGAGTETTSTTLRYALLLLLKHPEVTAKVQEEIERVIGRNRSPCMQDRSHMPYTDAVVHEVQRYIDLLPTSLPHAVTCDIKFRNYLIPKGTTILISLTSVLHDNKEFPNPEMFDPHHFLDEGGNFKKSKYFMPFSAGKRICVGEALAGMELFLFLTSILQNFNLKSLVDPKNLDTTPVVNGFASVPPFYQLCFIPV
Sequence of CYP17 (P11715 whole entry): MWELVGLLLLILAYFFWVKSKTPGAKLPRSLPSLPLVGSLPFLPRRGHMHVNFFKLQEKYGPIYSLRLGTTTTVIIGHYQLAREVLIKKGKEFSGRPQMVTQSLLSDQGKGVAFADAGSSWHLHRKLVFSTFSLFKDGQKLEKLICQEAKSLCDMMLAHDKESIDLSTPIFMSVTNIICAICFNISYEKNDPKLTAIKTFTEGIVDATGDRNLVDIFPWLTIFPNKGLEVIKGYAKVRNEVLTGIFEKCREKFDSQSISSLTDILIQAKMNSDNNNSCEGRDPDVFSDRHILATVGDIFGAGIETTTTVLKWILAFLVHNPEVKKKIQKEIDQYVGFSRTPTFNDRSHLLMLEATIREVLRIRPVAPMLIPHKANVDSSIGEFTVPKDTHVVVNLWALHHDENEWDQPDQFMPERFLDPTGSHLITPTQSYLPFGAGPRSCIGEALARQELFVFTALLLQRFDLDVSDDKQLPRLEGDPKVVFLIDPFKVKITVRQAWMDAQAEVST
Sequence of CYP2C19 (P33261 whole entry): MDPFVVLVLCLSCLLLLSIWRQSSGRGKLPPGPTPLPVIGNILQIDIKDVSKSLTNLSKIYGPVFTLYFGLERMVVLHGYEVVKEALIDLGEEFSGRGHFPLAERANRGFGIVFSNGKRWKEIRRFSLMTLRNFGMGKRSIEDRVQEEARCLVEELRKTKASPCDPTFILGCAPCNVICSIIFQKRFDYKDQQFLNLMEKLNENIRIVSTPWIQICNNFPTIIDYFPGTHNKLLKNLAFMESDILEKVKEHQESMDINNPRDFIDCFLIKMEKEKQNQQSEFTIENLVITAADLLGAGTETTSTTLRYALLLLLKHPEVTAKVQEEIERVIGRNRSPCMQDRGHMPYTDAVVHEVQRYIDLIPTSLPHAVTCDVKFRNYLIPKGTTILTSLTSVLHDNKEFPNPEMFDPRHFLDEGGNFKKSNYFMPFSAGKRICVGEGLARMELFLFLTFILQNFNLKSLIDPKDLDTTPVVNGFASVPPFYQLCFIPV

IC50 [1] [µM]	IC50 [2] [µM]	IC50 [3] [µM]	IC50 [4] [µM]	SMILES
0.21	15	35		CC(C)C(c1ccc2cc(OC(F)F)ccc2c1)n1ncnn1 (centres unmarked) [Example 4, 2-(1-(6-(difluoromethoxy)naphthalen-2-yl)-2-methylpropyl)-2H-tetrazole]
0.4	7	37	> 200	CC(C)C(c1ccc2cc(OC(F)F)c(OC(F)F)cc2c1)n1ncnn1 (centres unmarked) [Example 1, 2-(1-(6,7-bis(difluoromethoxy)naphthalen-2-yl)-2-methylpropyl)-2H-tetrazole]
0.27	4.8	30	> 200	COc1cc2ccc(C(C(C)C)n3ncnn3)cc2cc1OC (centres unmarked) [Example 3, 2-(1-(6,7-Dimethoxynaphthalen-2-yl)-2-methylpropyl)-2H-tetrazole]
0.46	27	45		CC(C)C(c1ccc2cc(OCC(F)(F)F)ccc2c1)n1ncnn1 (centres unmarked) [Example 2, 2-(2-Methyl-1-(6-(2,2,2-trifluoroethoxy)naphthalen-2-yl)propyl)-2H-tetrazole]
